These results are taken from patent US20250129370A1, “METHOD FOR REDUCING HEPATIC TRIGLYCERIDES” (ADAERATA, LIMITED PARTNERSHIP, priority 2022, published 2025).

In one data set the test system is PCSK7 mRNA. Description: PCSK7 mRNA qPCR after miRNA overexpression in HEK293T cells. The format is cell-based, human. The note with it: 48 hours after transfection. On the procedure:
RNA was isolated from the cells with the TRIzol™ Reagent (Invitrogen, USA) according to the manufacturer's instructions. The RNA samples were treated with RNase-free DNase I (Fermentas, USA) to eliminate any possible DNA contamination. Reverse transcription was performed using the PrimeScript™ First Strand cDNA Synthesis Kit (Takara, Japan) following the manufacturer's protocol. Briefly, one unit of the DNase I enzyme, 1 μL of a buffer, and 1 μg of total RNA were incubated for 30 minutes at 37° C. Then, 1 μL of 50 mM EDTA was added for enzyme inactivation and incubated at 65° C. for 10 minutes. Subsequently, 5 μL of DNase-treated RNA was added to the mix of 0.5 μL of the reverse-transcriptase enzyme, 2 μL of the reverse-transcriptase buffer, and 1 μL of a random hexamer and incubated for 15 minutes at 37° C., followed by 5 seconds at 85° C. for enzyme inactivation. Stem-loop RT-qPCR method was applied for evaluating the expression of miRNAs (Kramer, 2011). […]
All the reactions were repeated in duplicates. Next, melt curves were analyzed, with the mean threshold cycles used for further analyses. The relative expressions of the miRNAs and PCSK7 to RNU48 small nuclear RNA and/or GAPDH and β2m were calculated, respectively, via the 2-ΔΔCt method. […]
A general note: Quantitative PCR measures a nucleic acid by following its amplification.

The test system of a further data set is human PCSK9. Briefly: Western blot of PCSK9 protein in Huh7 cells co-transfected with miRNA vectors. Conditions: Huh7, selectivity control. The format is cell-based. On the procedure: Western blot analysis was conducted to determine whether miR-125a-5p affected the functional activity of […] PC7 in Huh7 cells. A wild-type human PC7-overexpressing vector was co-transfected with pre-miR-125a-5p and pre-miR-224-5p-overexpressing plasmids in Huh7 cells. […] As control, a human PCSK9-overexpressing vector was co-transfected with miR-125a-5p and miR-224-5p vectors in Huh7 cells, whereby these miRNAs had no effect on the expression level of PCSK9 protein (not shown).
Background: Immunoblotting shows a protein as a band on a membrane.

The subject of a further data set is hTfR1. Description: Western blot of hTfR1 protein in Huh7 cells co-transfected with miR-125a-5p vector. The format is cell-based, human. The source says: FIGS. 31A-B. Western blot (FIG. 31A) and quantitative (FIG. 31B) analysis of the cellular expression of human TfR1 after the co-transfection of the miR-125a-5p and TfR1-overexpressing vectors in Huh7 cells. No direct effect by miR-125a-5p on TfR1 expression was observed. Here miR-125a-5p was overexpressed at different plasmid DNA ratios of PCSK7: miRNA: 1:2 (2×), 1:3 (3×), and 1:5 (5×). X stands for vector DNA fold for miR-125-5p compared to vector expressing PC7.
In the next step, the effect of miR-125a-5p on PC7 function was determined. […] Thereafter, the impact of miR-125a-5p on the enzymatic function of PC7 was assessed by co-transfecting Huh7 cells with the miR-125a-5p-overexpressing vector, with that coding for the full length of PCSK7, and a plasmid encoding hTfR1 (Guillemot et al., 2013; Durand et al., 2020). […]
Subsequently, proteins were isolated with an ice-cold RIPA buffer (1×), comprising 50 mM of Tris hydrochloride (pH 8), 150 mM of sodium chloride, 0.1% sodium dodecyl sulfate, 1% Nonidet P40, 0.25% sodium deoxycholate, and a cocktail of protease inhibitors (Roche, Oakville, ON, Canada). […] Both PC7 and TfR1 were C-terminally tagged with V5 and detected with a V5-monoclonal antibody (Invitrogen) and membranes were incubated with appropriate primary and secondary antibodies, as reported (Guillemot et al., 2013). […]

On to “miR-125a-5p: miRNA targeting PCSK7 3′-UTR and exons 14 and 15, overexpressed from pEGFP-C1 precursor vector (UCCCUGAGACCCUUUAACCUGUGA; miRNA expressed from a pEGFP-C1 precursor vector, further chemistry not given here)”, for which, in the data set with PCSK7 mRNA, the “reduction in PCSK7 mRNA levels” value is on record as approximately 25%. For the same substance, the “expression level of PCSK9 protein” value in the data set with human PCSK9 is “no effect”. For the same substance, the “expression level of the hTfR1 protein” value with hTfR1 is “exerted no effect”.
